Experiments:
Format in all cases: in vivo
[1] = test system: Female New Zealand rabbits; assay: Pelvic nerve-stimulated female genital blood flow, anaesthetised rabbit model of sexual arousal
Method: Female New Zealand rabbits (~2.5kg) were pre-medicated with a combination of Medetomidine (Domitor®) 0.5ml/kg i.m., and Ketamine (Vetalar®) 0.25ml/kg i.m. whilst maintaining oxygen intake via a face mask. The rabbits were tracheotomised using a Portex™ uncuffed endotracheal tube 3 ID., connected to ventilator and maintained at a ventilation rate of 30-40 breaths per minute, with an approximate tidal volume of 18-20 ml, and a maximum airway pressure of 10 cm H2O. Anaesthesia was then switched to Isoflurane and ventilation continued with O2 at 21/min. The right marginal ear vein was cannulated using a 23G or 24G catheter, and Lactated Ringer solution perfused at 0.5ml/min. The rabbit was maintained at 3% Isoflurane during invasive surgery, dropping to 2% for maintenance anaesthesia.
The left groin area of the rabbit was shaved and a vertical incision was made approximately 5cm in length along the thigh. The femoral vein and artery were exposed, isolated and then cannulated with a PVC catheter (17G) for the infusion of drugs and compounds. Cannulation was repeated for the femoral artery, inserting the catheter to a depth of 10cm to ensure that the catheter reached the abdominal aorta. This arterial catheter was linked to a Gould system to record blood pressure. Samples for blood gas analysis were also taken via the arterial catheter. Systolic and diastolic pressures were measured, and the mean arterial pressure calculated using the formula (diastolic x2 + systolic) ö3. Heart rate was measured via the pulse oxymeter and Po-ne-mah data acquisition software system (Ponemah Physiology Platform, Gould Instrument Systems Inc). A ventral midline incision was made into the abdominal cavity. The incision was about 5cm in length just above the pubis. The fat and muscle was bluntly dissected away to reveal the hypogastric nerve which runs down the body cavity. It was essential to keep close to the side curve of the pubis wall in order to avoid damaging the femoral vein and artery which lie above the pubis. The sciatic and pelvic nerves lie deeper and were located after further dissection on the dorsal side of the rabbit. Once the sciatic nerve is identified, the pelvic nerve was easily located. The term pelvic nerve is loosely applied; anatomy books on the subject fail to identify the nerves in sufficient detail. However, stimulation of the nerve causes an increase in vaginal and clitoral blood flow, and innervation of the pelvic region. The pelvic nerve was freed away from surrounding tissue and a Harvard bipolar stimulating electrode was placed around the nerve. […] A frequency response curve was determined at the start of each experiment in order to determine the optimum frequency to use as a sub-maximal response, normally 4Hz. […]

[2] = test system: Ovariectomised adult female Sprague Dawley rats; assay: Female rat sexual proceptivity test (time investigating male vs female stimulus); details: Example 1; i.p., 3 and 10mg/kg in 50% 2-hydroxypropyl-β-cyclodextrin, 1h before tests
[3] = test system: conscious male rat; assay: Penile intracavernosal pressure in the conscious male rat (telemetry)
Method: In addition to treating women with FSD, bombesin antagonists will be useful in treating male erectile dysfunction (MED. Both the non-selective BB1/2 antagonists (Compound 1; 10mg/kg sc) and the selective BB1 receptor antagonist (Compound 3; 15mg/kg sc) is pro-erectile in a conscious rat model of penile erection (Figures 24 and 25). Erectile responses were recorded by measuring intracavernosal pressure using surgically implanted telemetric device. The specific details the surgical procedures, data acquisition and analysis can be found in detail in Bemabe 1999.
Compound 1 and compound 3 were dissolved in 50% β-cyclodextrin in saline. They were administered at a dose of 15mg/kg subcutaneously (sc). […] These increases equate to penile erection. Both Compounds 1 and 3 induced a number of erections in a similar manner to those observed with apomorphine or melanotan-II - both of which are clinically proven agents that are effective in the treatment of MED. Moreover the amplitude of the increases observed were similar to those observed with apomorphine or melanotan-II. The mechanism of action is thought to be similar to the effects on female genital flow ie CNS potentiation of the descending neuronal pathways that control penile erection.

[4] = test system: Ovariectomised adult female Sprague Dawley rats; assay: Female rat sexual receptivity test (lordosis quotient, LQ); details: Example 2; after vs before administration (paired t test); Compound (1) 10mg/kg i.p. 1h; quinelorane 6.25µg/kg s.c. 90min
Method: Ovariectomised adult female Sprague Dawley rats (180-200g, from Charles River) were housed in groups of 6 in a reversed lighting system of 12h light:dark (lights off 7.00-19.00h). Two weeks after ovariectomy they were used for sexual activity tests. The experiments started at least 5h into the dark period.
It was administered intraperitoneally (i.p.) at a dose of 10mg/kg, in a dosing volume of 1ml/kg. […] Forty eight hours before testing, ovariectomised female rats (as described above), were primed with 5µg oestradiol benzoate dissolved in corn oil and injected subcutaneously. […] The females were placed with a series of vigorous male rats and subjected to 10 mounts.
The lordotic response of the animal was recorded and expressed as a percentage of the mounts (i.e. lordosis quotient, LQ), as previously described. Animals showing LQ<20 were considered non-receptive and were included in the study. Each rat was tested prior to administration of the compound and then tested similarly post-injection.
The above compound was dissolved in PEG200 vehicle and administered orally. […] Both compounds were administered in a 1ml/kg volume.
Forty eight hours before tests, the animals were primed with 5µg oestradiol benzoate (Sigma Chemical. Co. Ltd., UK) dissolved in corn oil and injected subcutaneously. The females were placed with a series of vigorous male rats and subjected to 10 mounts. The lordotic response of the animal was recorded and expressed as a percentage of the mounts (i.e. lordosis quotient, LQ). […] Animals showing higher LQ were not included in the study. Each rat was tested prior to administration of the compound and then tested similarly at 1h and 90min post-injection of the above compound or quinelorane respectively.

For `COc1ccc(C2(CNC(=O)[C@](C)(Cc3c[nH]c4ccccc34)NC(=O)Nc3ccc([N+](=O)[O-])cc3)CCCCC2)nc1` [Compound (1), (S) 3-(1H-Indol-3-yl)-N-[1-(5-methoxy-pyridin-2-yl)-cyclohexyl-methyl]-2-methyl-2-[3-(4-nitro-phenyl)-ureido]-propionamide], the “basal genital blood flow in the absence of PNS” value ([1]; 15mg/kg sc) was “no effect”, the “pelvic-nerve stimulated (PNS) increases in genital (vaginal and clitoral) blood flow” value ([1]; 15mg/kg sc in 50% β-cyclodextrin in saline) was “potent enhancer” and the “MED (increase in percentage of time spent investigating the male stimulus)” value [2] was 10 mg/kg. For the same compound, the “erectile response (penile erection)” value ([3]; Compound 1 10mg/kg sc, Compound 3 15mg/kg sc) was “pro-erectile”, the intracavernosal pressure ([3]; one hour after 10mg/kg sc Compound 1, 45 minutes after 15mg/kg sc compound 3) was “significant increases in intracavernosal pressure” and the “lordosis quotient (LQ)” value [4] was “significant (P<0.05) stimulatory effect on the LQ”.

Source: patent EP1333824B1, “TREATMENT OF SEXUAL DYSFUNCTION WITH BOMBESIN RECEPTOR ANTAGONISTS” (Warner-Lambert Company LLC, priority 2000, dated 2002)
